In US20170152226A1, “FUNCTIONALISED AND SUBSTITUTED INDOLES AS ANTI-CANCER AGENTS” (Novogen Ltd., priority 2014, published 2017):
Read-outs that look alike come from different tables or passages of the source.

Experiments:
Experiment in all cases: Anti-proliferative activity, cell-titre luminescent viability assay
Format in all cases: cell-based
SK-N-SH = conditions: Homo sapiens, SK-N-SH, read-out: IC50 Neuroblastoma SK-N-SH
Protocol: (§1) The ability of compounds 3501-3540 and 3542-3545 to inhibit the proliferation of cancer cells representative of neuroblastoma, melanoma, prostate cancer, colorectal cancer, non-small cell lung carcinoma, and triple negative breast cancer was assessed. Briefly, a pre-determined number of cells as calculated from cell growth assays for each of the cell lines employed were seeded into their respective culture medium (using ATCC culture parameters—http://www.atcc.org) and cultured for 24 hours at 37° C. and 5% CO2 in 96-well culture plates. Once attached, each cell line was then exposed to increasing concentrations of each respective analogue (0.03, 0.3, 3 and 30 μM for compounds in Table 1; 0.1, 0.3, 1, 3, 10 and 30 μM for compounds in Table 2), cultured for a further 72 hours and exposed to cell-titre luminescent reagent (100 μL/well) for a further 30 min) to assess for cell viability. Luminescence was captured using an EnVision multilabel reader and the data for each analogue concentration was normalized, as a percentage, to the no treatment control. For compounds 3501, 3503, 3505-08, 3512-18, 3520, 3522-24 and 3531-36, semi-log plots of Percent of Control versus concentration were prepared and IC50 determined using linear regression analysis. For compounds 3502, 3504, 3509-11, 3519, 3521, 3525-30, 3537-40 and 3542-45, cell viability was normalized to control (vehicle alone) and dose-response curves, and half maximal effective concentration (EC50) values were determined using Graph Pad Prism 6 (nonlinear regression sigmoidal dose-response variable slope).

A549 = conditions: Homo sapiens, read-out: IC50 Lung (NSLC) A549
Protocol: as §1

PC3 = conditions: Homo sapiens, read-out: IC50 Prostate PC3
Protocol: as §1

CaCo2 = conditions: read-out: IC50 Colorectal CaCo2
Protocol: as §1

MDA-MB-231 = conditions: Homo sapiens, read-out: IC50 Breast MDA-MB-231
Protocol: as §1

SK-Mel-28 = conditions: Homo sapiens, SK-MEL-28, 72 hours, read-out: IC50 Melanoma SK-Mel-28
Protocol: as §1

DU145 = conditions: Homo sapiens, read-out: IC50 Prostate DU145
Protocol: as §1

[1] = 72 h, 0.1, 0.3, 1, 3, 10 and 30 μM, nonlinear regression sigmoidal dose-response (EC50)
[2] = A549, 72 h, 0.1, 0.3, 1, 3, 10 and 30 μM, nonlinear regression sigmoidal dose-response (EC50)
[3] = PC-3, 72 h, 0.1, 0.3, 1, 3, 10 and 30 μM, nonlinear regression sigmoidal dose-response (EC50)
[4] = Homo sapiens, Caco-2, 72 h, 0.1, 0.3, 1, 3, 10 and 30 μM, nonlinear regression sigmoidal dose-response (EC50)
[5] = MDA-MB-231, 72 h, 0.1, 0.3, 1, 3, 10 and 30 μM, nonlinear regression sigmoidal dose-response (EC50)
[6] = 0.1, 0.3, 1, 3, 10 and 30 μM, nonlinear regression sigmoidal dose-response (EC50)
[7] = DU-145, 72 h, 0.1, 0.3, 1, 3, 10 and 30 μM, nonlinear regression sigmoidal dose-response (EC50)
[8] = 72 h, 0.03, 0.3, 3 and 30 μM, linear regression of semi-log plots
[9] = A549, 72 h, 0.03, 0.3, 3 and 30 μM, linear regression of semi-log plots
[10] = PC-3, 72 h, 0.03, 0.3, 3 and 30 μM, linear regression of semi-log plots
[11] = Homo sapiens, Caco-2, 72 h, 0.03, 0.3, 3 and 30 μM, linear regression of semi-log plots
[12] = MDA-MB-231, 72 h, 0.03, 0.3, 3 and 30 μM, linear regression of semi-log plots
[13] = 0.03, 0.3, 3 and 30 μM, linear regression of semi-log plots
[14] = DU-145, 72 h, 0.03, 0.3, 3 and 30 μM, linear regression of semi-log plots

Work on Cc1c(C)n(CCCN2CCN(C)CC2)c2ccc(Oc3ccc(C(=O)N4CCN(CCc5ccc6c(c5)OCO6)CC4)cc3)cc12 [Compound 3527, (4-(2-(benzo[d][1,3]dioxol-5-yl)ethyl)piperazin-1-yl)(4-((2,3-dimethyl-1-(3-(4-methylpiperazin-1-yl)propyl)-1H-indol-5-yl)oxy)phenyl)methanone] yielded an IC50 (SK-N-SH; [1]) of 3.2 µM, an IC50 (A549; [2]) of 5 µM and an IC50 (PC3; [3]) of 7.2 µM. For the same compound, the IC50 (CaCo2; [4]) was 4.1 µM, the IC50 (MDA-MB-231; [5]) was 4.8 µM and the IC50 (SK-Mel-28; [6]) was 4.1 µM. It also gave an IC50 (DU145; [7]) of 4.5 µM.
Compound Cc1c(C)n(CCCN2CCN(C)CC2)c2ccc(Oc3ccc(C(=O)N4CCN(CCc5cccc(F)c5)CC4)cc3)cc12 [Compound 3528] has an IC50 (SK-N-SH; [1]) of 4.3 µM, an IC50 (A549; [2]) of 6.6 µM and an IC50 (PC3; [3]) of 7.3 µM. It also gave an IC50 (CaCo2; [4]) of 4.6 µM, an IC50 (MDA-MB-231; [5]) of 5.9 µM and an IC50 (SK-Mel-28; [6]) of 3.8 µM. The IC50 (DU145; [7]) was 5.2 µM.
COc1cccc(CCN2CCN(C(=O)c3ccc(Oc4ccc5c(c4)c(C)c(C)n5CCCN4CCN(C)CC4)cc3)CC2)c1 [Compound 3529] was tested, and the IC50 (SK-N-SH; [1]) was 2 µM, the IC50 (A549; [2]) was 4.4 µM and the IC50 (PC3; [3]) was 4.8 µM. For the same compound, the IC50 (CaCo2; [4]) was 4.2 µM, the IC50 (MDA-MB-231; [5]) was 4.5 µM and the IC50 (SK-Mel-28; [6]) was 2.4 µM. The IC50 (DU145; [7]) was 4.2 µM.
Cc1c(C)n(CCCN2CCN(C)CC2)c2ccc(Oc3ccc(C(=O)N4CCN(CCc5ccccc5)CC4)cc3)cc12 [Compound 3530] showed an IC50 (SK-N-SH; [1]) of 1.6 µM, an IC50 (A549; [2]) of 2.4 µM and an IC50 (PC3; [3]) of 4.8 µM. For the same compound, the IC50 (CaCo2; [4]) was 4.3 µM, the IC50 (MDA-MB-231; [5]) was 2.1 µM and the IC50 (SK-Mel-28; [6]) was 3.9 µM. The IC50 (DU145; [7]) was 4.5 µM.
With Cc1c(C)n(CCCN2CCN(C)CC2)c2ccc(Nc3ccc(C(=O)N4CCN(CCc5ccc(F)cc5)CC4)cc3)cc12 [Compound 3531, (4-((2,3-dimethyl-1-(3-(4-methylpiperazin-1-yl)propyl)-1H-indol-5-yl)amino)phenyl)(4-(4-fluorophenethyl)piperazin-1-yl)methanone] the IC50 (SK-N-SH; [8]) was 3.4 µM, the IC50 (A549; [9]) was 3.9 µM and the IC50 (PC3; [10]) was 4.6 µM. The IC50 (CaCo2; [11]) was 4.2 µM, the IC50 (MDA-MB-231; [12]) was 3.5 µM and the IC50 (SK-Mel-28; [13]) was 2.8 µM. The IC50 (DU145; [14]) was 3.9 µM.
COc1ccc(CCN2CCN(C(=O)c3ccc(Nc4ccc5c(c4)c(C)c(C)n5CCCN4CCN(C)CC4)cc3)CC2)cc1 [Compound 3532, (4-((2,3-dimethyl-1-(3-(4-methylpiperazin-1-yl)propyl)-1H-indol-5-yl)amino)phenyl)(4-(4-methoxyphenethyl)piperazin-1-yl)methanone] showed an IC50 (SK-N-SH; [8]) of 2.3 µM, an IC50 (A549; [9]) of 2.2 µM and an IC50 (PC3; [10]) of 4.2 µM. The IC50 (CaCo2; 72 hours, 0.03, 0.3, 3 and 30 μM, linear regression of semi-log plots) was 3.1 µM, the IC50 (MDA-MB-231; [12]) was 1.9 µM and the IC50 (SK-Mel-28; [13]) was 2.7 µM. The IC50 (DU145; [14]) was 4 µM.
Cc1c(C)n(CCCN2CCN(C)CC2)c2ccc(Nc3ccc(C(=O)N4CCN(CCc5ccc6c(c5)OCO6)CC4)cc3)cc12 [Compound 3533, (4-(2-(benzo[d][1,3]dioxol-5-yl)ethyl)piperazin-1-yl)(4-((2,3-dimethyl-1-(3-(4-methylpiperazin-1-yl)propyl)-1H-indol-5-yl)amino)phenyl)methanone] gave an IC50 (SK-N-SH; [8]) of 3.3 µM, an IC50 (A549; [9]) of 3.7 µM and an IC50 (PC3; [10]) of 3.3 µM. The IC50 (CaCo2; [11]) was 3.9 µM, the IC50 (MDA-MB-231; [12]) was 4.2 µM and the IC50 (SK-Mel-28; [13]) was 4.8 µM. The IC50 (DU145; [14]) was 3.7 µM.
With COc1cccc(CCN2CCN(C(=O)c3ccc(Nc4ccc5c(c4)c(C)c(C)n5CCCN4CCN(C)CC4)cc3)CC2)c1 [Compound 3535, (4-((2,3-dimethyl-1-(3-(4-methylpiperazin-1-yl)propyl)-1H-indol-5-yl)amino)phenyl)(4-(3-methoxyphenethyl)piperazin-1-yl)methanone] the IC50 (SK-N-SH; [8]) was 2.8 µM, the IC50 (A549; [9]) was 2.7 µM and the IC50 (PC3; [10]) was 3.7 µM. It also gave an IC50 (CaCo2; [11]) of 3 µM, an IC50 (MDA-MB-231; [12]) of 2.6 µM and an IC50 (SK-Mel-28; [13]) of 3.3 µM. The IC50 (DU145; [14]) was 3.8 µM.
